# Assay results from US9669031B2, “MNK inhibitors and methods related thereto” (eFFECTOR Therapeutics, Inc., priority 2014, dated 2017).
# pIC50: −log10 of the molar value. Counter-ions that a name gives are not always drawn.
# Columns and labels:
# Mnk2 = Mnk2 (Homo sapiens (Human), UniProt Q9HBH9); test: biochemical
# in vivo = details: female, Balb/c, mouse, po, 10 mg/kg; for half-life: T½; for AUC(0-t): AUClast
# [1] = female, Balb/c, mouse, in vivo, po, 10 mg/kg
# Mnk1 = Mnk1 (Homo sapiens (Human), UniProt Q9BUB5); test: biochemical
# Sequence of Mnk1 (Q9BUB5 whole entry): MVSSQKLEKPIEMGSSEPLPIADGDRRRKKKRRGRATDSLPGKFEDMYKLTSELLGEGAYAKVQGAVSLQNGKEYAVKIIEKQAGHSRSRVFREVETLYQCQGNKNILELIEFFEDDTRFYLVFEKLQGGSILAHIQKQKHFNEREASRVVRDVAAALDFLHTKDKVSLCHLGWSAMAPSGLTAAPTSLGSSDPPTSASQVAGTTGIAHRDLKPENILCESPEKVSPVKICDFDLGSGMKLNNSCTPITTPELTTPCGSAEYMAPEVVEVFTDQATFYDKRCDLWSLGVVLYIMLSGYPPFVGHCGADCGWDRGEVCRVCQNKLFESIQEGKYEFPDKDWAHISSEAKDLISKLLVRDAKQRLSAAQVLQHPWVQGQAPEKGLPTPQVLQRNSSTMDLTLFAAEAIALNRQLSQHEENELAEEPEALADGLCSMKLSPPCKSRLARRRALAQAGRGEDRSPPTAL
# [2] = Pharmacokinetics in Balb/c mice, single intravenous bolus administration; type: in vivo; details: intravenous bolus 1 mg/kg, formulation 10DMA/15EtOH/35PEG300/40D5W, gender F
# Sequence of Mnk2 (Q9HBH9 whole entry): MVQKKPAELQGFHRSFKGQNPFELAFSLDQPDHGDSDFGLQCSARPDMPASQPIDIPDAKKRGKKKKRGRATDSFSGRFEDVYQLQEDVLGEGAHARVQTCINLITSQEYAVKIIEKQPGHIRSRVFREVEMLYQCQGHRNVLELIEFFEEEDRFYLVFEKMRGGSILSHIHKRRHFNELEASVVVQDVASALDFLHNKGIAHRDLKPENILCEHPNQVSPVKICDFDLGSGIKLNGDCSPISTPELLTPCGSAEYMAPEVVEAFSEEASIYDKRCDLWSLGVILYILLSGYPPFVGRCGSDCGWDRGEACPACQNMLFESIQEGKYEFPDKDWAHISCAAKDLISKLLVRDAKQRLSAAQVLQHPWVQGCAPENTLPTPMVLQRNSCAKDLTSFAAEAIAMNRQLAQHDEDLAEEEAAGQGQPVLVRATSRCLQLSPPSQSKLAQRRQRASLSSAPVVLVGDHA
Compound,pIC50 (Mnk2),Cmax (in vivo) [ng/mL],Tmax (in vivo) [min],half-life (in vivo) [min],Tlast [1] [h],AUC(0-t) (in vivo) [ng·h/mL],pIC50 (Mnk1),further results
"Cc1cc(Nc2cc(N)ncn2)c(=O)n2c1C(=O)NC2(C)C.Cl [Cpd. No. 102, 6-((6-aminopyrimidin-4-yl)amino)-3,3,8-trimethyl-2,3-dihydroimidazo[1,5-a]pyridine-1,5-dione hydrochloride]",> 8.00,1800,18,84,–,–,–,–
"CC1(C2CCCC2)N(C#N)C(=O)c2ccc(Nc3cc(N)ncn3)c(=O)n21 (stereo not drawn) [Cpd. No. 118, 6-[(6-aminopyrimidin-4-yl)amino]-3-cyclopentyl-3-methyl-1,5-dioxo-imidazo[1,5-a]pyridine-2-carbonitrile]",> 8.00,–,–,–,–,–,–,–
"CC(C)(C)C1(C)NC(=O)c2c(Cl)cc(Nc3cc(N)ncn3)c(=O)n21 (stereo not drawn) [Cpd. No. 105, 6-[(6-aminopyrimidin-4-yl)amino]-3-tert-butyl-8-chloro-3-methyl-2H-imidazo[1,5-a]pyridine-1,5-dione hydrochloride]",–,–,–,–,–,–,> 8.00,–
"Cc1cc(Nc2cc(N)ncn2)c(=O)n2c1C(=O)NC2(C)c1cccc(F)c1 (stereo not drawn) [Cpd. No. 101, 6-((6-aminopyrimidin-4-yl)amino)-3-(3-fluorophenyl)-3,8-dimethyl-2,3-dihydroimidazo[1,5-a]pyridine-1,5-dione]",–,–,–,–,–,–,> 8.00,–
"Cc1cc(Nc2cc(N)ncn2)c(=O)n2c1C(=O)NC21CCCN(C)C1 (stereo not drawn) [Cpd. No. 170, 6-[(6-aminopyrimidin-4-yl)amino]-1′,8-dimethyl-spiro[2H-imidazo[1,5-a]pyridine-3,3′-piperidine]-1,5-dione]",–,–,–,–,–,–,> 8.00,–

# Continued, in another order:
pIC50 (Mnk2),Cmax (in vivo) [ng/mL],Tmax (in vivo) [min],half-life (in vivo) [min],Tlast [1] [h],AUC(0-t) (in vivo) [ng·h/mL],pIC50 (Mnk1),Compound,further results
> 8.00,400,18,96,8,1380,> 8.00,"Cl.Nc1cc(Nc2cc(Cl)c3n(c2=O)C2(CCC(F)(F)CC2)NC3=O)ncn1 [Cpd. No. 99, 6-[(6-aminopyrimidin-4-yl)amino]-8-chloro-4′,4′-difluoro-spiro[2H-imidazo[1,5-a]pyridine-3,1′-cyclohexane]-1,5-dione hydrochloride]",–
–,36,60,133,4,78.2,> 8.00,"Cl.O=C1NC2(CCCNC2)n2c1c(Cl)cc(Nc1cc(NC(=O)C3CC3)ncn1)c2=O (stereo not drawn) [Cpd. No. 60, N-(6-((8-chloro-1,5-dioxo-1,5-dihydro-2H-spiro[imidazo[1,5-a]pyridine-3,3′-piperidin]-6-yl)amino)pyrimidin-4-yl)cyclopropanecarboxamide hydrochloride]",–
–,1800,30,120,8,6070,> 8.00,"Nc1cc(Nc2cc(Cl)c3n(c2=O)C2(CCCC2)NC3=O)ncn1 [Cpd. No. 94, 6-[(6-aminopyrimidin-4-yl)amino]-8-chloro-spiro[2H-imidazo[1,5-a]pyridine-3,1′-cyclopentane]-1,5-dione]","AUC(0-inf) ([2]; female, mouse, plasma, read-out: AUCINF_obs): 812 ng·h/mL; half-life ([2]; female, mouse, plasma, read-out: T½ (converted)): 349 min; Vd ([2]; female, mouse, plasma, read-out: Vss): 12.2 L/kg; Cl_obs [2]: 20.5 mL/min/kg"
–,44,18,18,–,–,> 8.00,"Cl.Cl.Nc1cc(Nc2cc(Cl)c3n(c2=O)C2(CCNCC2)NC3=O)ncn1 [Cpd. No. 108, 6-((6-aminopyrimidin-4-yl)amino)-8-chloro-2H-spiro[imidazo[1,5-a]pyridine-3,4′-piperidine]-1,5-dione dihydrochloride]",–
–,–,–,–,–,–,> 8.00,"O=C1NC2(CNC2)n2c1c(Cl)cc(Nc1cc(NC(=O)C3CC3)ncn1)c2=O [Cpd. No. 86, N-[6-[(8-chloro-1,5-dioxo-spiro[2H-imidazo[1,5-a]pyridine-3,3′-azetidine]-6-yl)amino]pyrimidin-4-yl]cyclopropanecarboxamide hydrochloride]",–
